Laboratory results from ChEMBL document CHEMBL1201862, “PubChem BioAssay data set” (2004).
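Five compound concentrations were applied to cells in 96-well plates for 48 hours; endpoints were derived by simple linear interpolation of the resulting dose-response curve. GI50 is the concentration that inhibits growth by half.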 The source made the active and inactive calls. Rule as the data show it: active = GI50 up to about 1.1 µM and inactive = higher. Where a SMILES comes first, the peptide text is derived from it. [ ]: non-standard residue; d: D form. pGlu = O=C1CC[CH](C(=O)O)N1

What was measured:
Assay in all cases: NCI tumour cell line growth inhibition, 48 h
CCRF-CEM = test system: CCRF-CEM
COLO 205 = test system: COLO 205
DU-145 = test system: DU-145
HCT-116 = test system: HCT-116
HOP-92 = test system: HOP-92
K562 = test system: K562
KM12 = test system: KM12
MCF7 = test system: MCF7
NCI-H226 = test system: NCI-H226
NCI/ADR-RES = test system: NCI/ADR-RES
OVCAR-3 = test system: OVCAR-3
OVCAR-4 = test system: OVCAR-4
OVCAR-5 = test system: OVCAR-5
SF-539 = test system: SF-539
SN12C = test system: SN12C
SR = test system: SR
SW-620 = test system: SW-620
UACC-257 = test system: UACC-257
RPMI-8226 = test system: RPMI-8226
SK-MEL-2 = test system: SK-MEL-2

Row | SMILES | GI50 (CCRF-CEM) | GI50 (COLO 205) | GI50 (DU-145) | GI50 (HCT-116) | GI50 (HOP-92) | GI50 (K562) | GI50 (KM12) | GI50 (MCF7) | GI50 (NCI-H226) | GI50 (NCI/ADR-RES) | GI50 (OVCAR-3) | GI50 (OVCAR-4) | GI50 (OVCAR-5) | GI50 (SF-539) | GI50 (SN12C) | GI50 (SR) | GI50 (SW-620) | GI50 (UACC-257) | GI50 (RPMI-8226) | GI50 (SK-MEL-2)
1 | O=C1C=C(N2CCN(c3ncccn3)CC2)C(=O)c2c(O)ccc(O)c21 | > 100 µM (inactive) | > 100 µM (inactive) | > 100 µM (inactive) | 73.1 µM (inactive) | > 100 µM (inactive) | > 100 µM (inactive) | > 100 µM (inactive) | > 100 µM (inactive) | > 100 µM (inactive) | > 100 µM (inactive) | > 100 µM (inactive) | > 100 µM (inactive) | > 100 µM (inactive) | 21.6 µM (inactive) | > 100 µM (inactive) | > 100 µM (inactive) | > 100 µM (inactive) | > 100 µM (inactive) | – | –
2 | O=C1CSc2nc3ccccc3n2/C=N\N1 | > 100 µM (inactive) | > 100 µM (inactive) | > 100 µM (inactive) | > 100 µM (inactive) | > 100 µM (inactive) | > 100 µM (inactive) | > 100 µM (inactive) | > 100 µM (inactive) | > 100 µM (inactive) | > 100 µM (inactive) | – | > 100 µM (inactive) | > 100 µM (inactive) | – | > 100 µM (inactive) | > 100 µM (inactive) | > 100 µM (inactive) | > 100 µM (inactive) | > 100 µM (inactive) | > 100 µM (inactive)
3 | CC(NS(C)(=O)=O)c1ccccc1 (stereo unspecified) | > 100 µM (inactive) | > 100 µM (inactive) | > 100 µM (inactive) | > 100 µM (inactive) | – | > 100 µM (inactive) | > 100 µM (inactive) | > 100 µM (inactive) | > 100 µM (inactive) | > 100 µM (inactive) | > 100 µM (inactive) | > 100 µM (inactive) | > 100 µM (inactive) | > 100 µM (inactive) | > 100 µM (inactive) | > 100 µM (inactive) | > 100 µM (inactive) | > 100 µM (inactive) | > 100 µM (inactive) | > 100 µM (inactive)
4 | CCOC(=O)Cc1nc2sc(S(N)(=O)=O)nn2c1Br | < 0.01 µM (active) | 39.4 µM (inactive) | 33.9 µM (inactive) | 31 µM (inactive) | 22.8 µM (inactive) | 41.5 µM (inactive) | 32.3 µM (inactive) | 24.7 µM (inactive) | 27.2 µM (inactive) | 47.4 µM (inactive) | 36.6 µM (inactive) | – | 22.1 µM (inactive) | – | 23.5 µM (inactive) | 40.6 µM (inactive) | 23.6 µM (inactive) | 29.9 µM (inactive) | 17.3 µM (inactive) | 28.5 µM (inactive)
5 | CC(C)c1ccc2c(c1)/C(=C1/Nc3ccccc3C1=O)C(=O)N2 | 27.3 µM (inactive) | > 100 µM (inactive) | 15.2 µM (inactive) | 11.3 µM (inactive) | 4.58 µM (inactive) | 33.7 µM (inactive) | 0.0973 µM (active) | 0.0188 µM (active) | 3.62 µM (inactive) | 17 µM (inactive) | 19 µM (inactive) | 1.7 µM (inactive) | 27.7 µM (inactive) | – | 20.9 µM (inactive) | 18.4 µM (inactive) | 43.3 µM (inactive) | 61.8 µM (inactive) | 27.8 µM (inactive) | 14.3 µM (inactive)
6 | COC(=O)C1CCC(=O)N1C(c1ccccc1)c1cc(OC)c(OC)c(OC)c1 (stereo unspecified) | 53.3 µM (inactive) | 45.5 µM (inactive) | > 100 µM (inactive) | 50 µM (inactive) | 99.3 µM (inactive) | 21.8 µM (inactive) | 45.8 µM (inactive) | 67.9 µM (inactive) | > 100 µM (inactive) | 76 µM (inactive) | 51.2 µM (inactive) | 49.7 µM (inactive) | > 100 µM (inactive) | 69.5 µM (inactive) | 80.5 µM (inactive) | 50.9 µM (inactive) | 46.7 µM (inactive) | > 100 µM (inactive) | – | –
7 | COC(=O)C1=C(O)C(C(=O)OC)[C@@]2(O)[C@@H](C(=O)OC)C(c3ccc(OC(=O)/C(=C/c4ccc(Cl)cc4)c4ccc(Cl)cc4)cc3)C[C@@H]1[C@@H]2C(=O)OC (stereo partly specified) | 6.3 µM (inactive) | 24 µM (inactive) | 39 µM (inactive) | 11.3 µM (inactive) | 19.5 µM (inactive) | 22.3 µM (inactive) | 37.8 µM (inactive) | 20.6 µM (inactive) | 19.5 µM (inactive) | 57.7 µM (inactive) | 51.1 µM (inactive) | 20.6 µM (inactive) | 30.1 µM (inactive) | 12.2 µM (inactive) | 25.9 µM (inactive) | 9.06 µM (inactive) | 31.1 µM (inactive) | 52.6 µM (inactive) | – | 14.3 µM (inactive)
8 | CC(NC(=O)C1CCC(=O)N1)C(=O)N1CCCC1C(N)=O (stereo not drawn) ([pGlu]-Ala-Pro-NH2; configuration not given here) | > 100 µM (inactive) | > 100 µM (inactive) | > 100 µM (inactive) | > 100 µM (inactive) | > 100 µM (inactive) | > 100 µM (inactive) | > 100 µM (inactive) | > 100 µM (inactive) | > 100 µM (inactive) | > 100 µM (inactive) | > 100 µM (inactive) | > 100 µM (inactive) | > 100 µM (inactive) | – | > 100 µM (inactive) | > 100 µM (inactive) | > 100 µM (inactive) | – | > 100 µM (inactive) | –
